Laboratory results published in patent publication US9981928B2, “Aryl sulfide derivatives and aryl sulfoxide derivatives as acaricides and insecticides” (BAYER CROPSCIENCE AKTIENGESELLSCHAFT, priority 2013, dated 2018).
Where two headings read alike, the source gives them in different places.

What was measured:
[1] = log P determination by HPLC on reversed-phase columns (C 18), analogously to OECD Guideline 117; assay type: physicochemical; conditions: for logP (HCOOH): LC-MS in the acidic range, pH 2.7, 0.1% aqueous formic acid / acetonitrile; for logP (HCOOH) / logP (neutral): HPLC reversed-phase C 18; for logP (neutral): LC-MS in the neutral range, pH 7.8, 0.001 molar aqueous ammonium hydrogencarbonate / acetonitrile; for chromatographic logP: reversed-phase C18 HPLC column
Summary of the method: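 Reversed-phase C18 HPLC per OECD 117 with LC-MS detection and a linear 10→95% acetonitrile gradient. Acidic log P run at pH 2.7 with 0.1% formic acid in both eluents. Neutral log P run at pH 7.8 with 0.001 M aqueous ammonium hydrogencarbonate.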

[2] = test system: greenhouse red spider mite (Tetranychus urticae); assay: Tetranychus urticae spray test, OP-resistant (TETRUR), bean leaf disks; assay type: in vivo; conditions: bean leaf disks, after 6 days; for pest or weed control at 500 g/ha: Tetranychus urticae, foliar, 144 h, read-out: efficacy in %
Experimental: Tetranychus urticae—Spray Test, OP-Resistant (TETRUR)
Solvent: 78.0 parts by weight of acetone
• 1.5 parts by weight of dimethylformamide Emulsifier: alkylaryl polyglycol ether
To produce a suitable preparation of active compound, 1 part by weight of active compound is dissolved using the stated parts by weight of solvent and made up with water containing an emulsifier concentration of 1000 ppm until the desired concentration is attained. To produce further test concentrations, the preparation is diluted with emulsifier-containing water.
disks of bean leaves (Phaseolus vulgaris) infested with all stages of the greenhouse red spider mite (Tetranychus urticae) are sprayed with an active compound preparation of the desired concentration.
After 6 days, the efficacy in % is determined. 100% means that all the spider mites have been killed; 0% means that none of the spider mites have been killed.

[3] = acidic range, pH 2.7, 0.1% aqueous formic acid and acetonitrile, read-out: log P[a] / log P(HCOOH)
[4] = neutral range, pH 7.8, 0.001 molar aqueous ammonium hydrogencarbonate and acetonitrile, read-out: log P[b] / log P(neutral)

Row | SMILES | logP (HCOOH) [1] | logP (neutral) [1] | efficacy in % ([2]; application rate 500 g/ha) | chromatographic logP [1, 3] | chromatographic logP [1, 4] | pest or weed control at 500 g/ha ([2]; application rate 500 g/ha) | efficacy in % ([2]; application rate 100 g/ha)
1 | CCn1c(=O)n(-c2cc(SCC(F)(F)F)c(C)cc2F)n(C(C)(C)C)c1=O [Example 142] | 4.19 | 4.13 | 100% |  |  |  | 
2 | Cc1cc(F)c(N2C(=O)C(=O)N(CC(F)(F)F)C2=S)cc1SCC(F)(F)F [Example 189] | 3.95 |  | 90% |  |  |  | 
3 | Cc1cc(C)c([S+]([O-])CC(F)(F)F)cc1N1C(=O)C(=O)N(CC(F)F)C1=O (stereo not drawn) [Example 184] | 2.44 |  | 100% |  |  |  | 
4 | C=CCn1c(=O)n(C2CC2)c(=O)n1-c1ccc(C)c([S+]([O-])CC(F)(F)F)c1 (stereo not drawn) [Example 49] | 2.28 | 2.24 | 90% |  |  |  | 
5 | Cc1cc(C)c([S+]([O-])CC(F)(F)F)cc1N1C(=O)C(=O)N(CC(F)(F)F)C1=S (stereo not drawn) [Example 188] | 3.18 |  | 90% |  |  |  | 
6 | Cc1cc(F)c(N2C(=O)N(C)C(C)(C)C2=O)cc1SCC(F)(F)F [Example 18, 3-{2-Fluoro-4-methyl-5-[(2,2,2-trifluoroethyl)sulfanyl]phenyl}-1,5,5-trimethylimidazolidine-2,4-dione] |  |  |  | 2.96 | 2.92 | 100% | 
7 | Cc1cc(F)c(N2C(=O)C(=O)N(CC(C)C)C2=S)cc1[S+]([O-])CC(F)(F)F (stereo not drawn) [Example 194] | 3.56 | 3.53 | 90% |  |  |  | 
8 | C=CCn1c(=O)n(CC(F)(F)F)n(-c2cc(SCC(F)(F)F)c(C)cc2F)c1=O [Example 154] | 3.62 | 3.64 | 100% |  |  |  | 
9 | Cc1ccc(-n2c(=O)n(C(C)(C)C)c(=O)n2C(C)C)cc1SCC(F)(F)F [Example 135] | 4.77 | 4.70 | 90% |  |  |  | 
10 | Cc1cc(F)c(-n2c(=O)n(C(C)C)c(=O)n2C)cc1[S+]([O-])CC(F)(F)F (stereo not drawn) [Example 92] | 2.27 | 2.22 | 100% |  |  |  | 
11 | Cc1cc(F)c(N2C(=O)C(=O)N(C(C)(C)C)C2=S)cc1[S+]([O-])CC(F)(F)F (stereo not drawn) [Example 196] | 3.45 | 3.41 | 90% |  |  |  | 
12 | Cc1cc(F)c(-n2c(=O)n(C3CC3)c(=O)n2C(C)C)cc1SCC(F)(F)F [Example 65] | 3.59 | 3.51 | 100% |  |  |  | 
13 | Cn1c(=O)n(C)n(-c2ccc(Br)c([S+]([O-])CC(F)(F)F)c2)c1=O (stereo not drawn) [Example 67] | 2.05 | 2.02 | 100% |  |  |  | 
14 | Cc1cc(F)c(N2C(=O)CSC2=NCC(C)(C)C)cc1SCC(F)(F)F [Example 113] | 4.84 | 4.73 | 100% |  |  |  | 
15 | Cc1cc(F)c(-n2c(=O)n(C3CC3)c(=O)n2CC(F)(F)F)cc1SCC(F)(F)F [Example 129] | 3.48 | 3.43 | 100% |  |  |  | 
16 | COc1ccc(-n2c(=O)n(C)c(=O)n2C)cc1[S+]([O-])CC(F)(F)F (stereo not drawn) [Example 32] | 1.58 | 1.54 | 100% |  |  |  | 
17 | Cc1cc(F)c(N2C(=O)CSC2=NCC(F)(F)F)cc1SCC(F)(F)F [Example 11, 3-{2-Fluoro-4-methyl-5-[(2,2,2-trifluoroethyl)sulfanyl]phenyl}-2-[(2,2,2-trifluoroethyl)imino]-1,3-thiazolidin-4-one] |  |  |  | 3.6 | 3.5 | 90% | 
18 | CCC1(CC)C(=O)N(C)N(c2cc(SCC(F)(F)F)c(C)cc2F)C1=O [Example 175] | 3.41 | 3.40 | 100% |  |  |  | 
19 | Cc1cc(F)c(N2C(=O)C(C)(C)C(=O)N2Cc2ccccc2)cc1SCC(F)(F)F [Example 178] | 3.80 | 3.76 | 100% |  |  |  | 
20 | C=CCn1c(=O)n(-c2ccc(C)c(SCC(F)(F)F)c2)n(-c2ccc(C)c(SCC(F)(F)F)c2)c1=O [Example 79] | 4.86 | 4.67 |  |  |  |  | 90%
21 | Cc1cc(F)c(N2CCCC2=NCC(F)(F)F)cc1[S+]([O-])CC(F)(F)F (stereo not drawn) [Example 3, 2,2,2-Trifluoro-N-(1-{2-fluoro-4-methyl-5-[(2,2,2-trifluoroethyl)sulfinyl]phenyl}pyrrolidin-2-ylidene)ethanamine] |  |  |  | 1.02 | 2.88 | 90% | 
22 | C=CCn1c(=O)n(CC(F)(F)F)n(-c2cc([S+]([O-])CC(F)(F)F)c(C)cc2F)c1=O (stereo not drawn) [Example 166] | 2.72 | 2.89 | 90% |  |  |  | 
